In patent US7696149B2, “Pharmaceutical administration form for peptides, process for its preparation, and use” (AEterna Zentaris GmbH, priority 2000, dated 2010):
Where “and” joins values, the source holds several entries; their conditions need not be identical. Equal entries are not always repeated. Entries after “also recorded” stand apart in the source; their conditions may differ. Each block holds one compound with its values, some of them ahead of it. Non-standard residues stand in square brackets, D forms with d. Residues, ends and D or L forms follow the SMILES beside them. dPhe(4-Cl) = N[C@H](Cc1ccc(Cl)cc1)C(=O)O; d2Nal = N[C@H](Cc1ccc2ccccc2c1)C(=O)O; dCit = NC(=O)NCCC[C@@H](N)C(=O)O; d3Pal = N[C@H](Cc1cccnc1)C(=O)O

What was measured:
[1] = Rat animal experiment: cetrorelix residual content in the muscle 168 h after injection; assay type: in vivo; details: for Cetrorelix content in the muscle (168 h), % of the dose: rat
Procedure: (§1) After reconstitution of these lyophilizates, the solutions (2.5 mg/ml of cetrorelix) are investgated in the following tests for aggregate formation and release behaviour: • Polarization microscopy (pol. mic.): days without aggregation. • Filterability in %: • Cetrorelix solutions are prepared according to a standardized procedure and filtered through 0.22 μm or 0.45 μm filters by means of centrifugation. The concentration of cetrorelix in the filtrate is determined by HPLC and indicated as a % value, based on the starting concentration before filtration (filterability in %). • in-vitro release form (RRS, release in Ringer's solution): • % released after 1 h and after 6 h. • The in-vitro release behaviour is determined at 37° C. in a flow procedure using Ringer's solution as medium. The concentration measurement is carried out by HPLC. Cetrorelix samples, corresponding to 10 mg of cetrorelix base, are weighed into the flow cell, mixed with 4 ml of water and stirred for 10 min.
(§2) In the further rat muscle experiments shown in Table 9, in addition to the residual content in the muscle, the cetrorelix content in the plasma was additionally determined.

[2] = Rat muscle experiment: cetrorelix content in the plasma; assay type: in vivo
Text: as §2

[3] = Polarization microscopy: aggregation of cetrorelix solutions (days without aggregation); assay type: physicochemical
Procedure: By means of polarization microscopy, aggregation investigations were carried out on solutions of various cetrorelix salts without or with addition of excipients.
In the polarization light microscope with crossed polarizers, aggregated peptide solutions show images which are very similar to those of liquid-crystalline structures. In contrast to this, aggregate-free peptide solutions produce no such effects.
as §1, with “([…])” for “(2.5 mg/ml of cetrorelix)”

[4] = In-vitro release in Ringer's solution (RRS), flow procedure at 37° C.; assay type: physicochemical
Procedure: as §1, with “([…])” for “(2.5 mg/ml of cetrorelix)”

[5] = Optical appearance of cetrorelix acetate solutions with excipients; assay type: physicochemical
[6] = dose 1.5 mg/kg, inj. soln 3 mg/ml
[7] = Cremophor ® EL 5.00%, cetrorelix 2.5 mg/ml
[8] = Cremophor ® EL 10.00%, cetrorelix 2.5 mg/ml
[9] = Cremophor ® EL 20.00%, cetrorelix 2.5 mg/ml
[10] = Cremophor ® EL 20.00%, cetrorelix 5 mg/ml
[11] = Galacturonic acid 2.50%, cetrorelix 2.5 mg/ml, pH 2.6
[12] = Glucaric acid 2.50%, cetrorelix 2.5 mg/ml, pH 2.5
[13] = L-glutamic acid 0.80%, cetrorelix 2.5 mg/ml, pH 3.8
[14] = Solutol ® HS 15 5.00%, cetrorelix 2.5 mg/ml
[15] = Solutol ® HS 15 10.00%, cetrorelix 2.5 mg/ml
[16] = Solutol ® HS 15 20.00%, cetrorelix 2.5 mg/ml
[17] = cetrorelix 2.5 mg/ml, Kollidon 0%
[18] = cetrorelix 2.5 mg/ml, Kollidon 5%
[19] = cetrorelix 2.5 mg/ml, Kollidon 10%
[20] = cetrorelix 2.5 mg/ml, Kollidon 15%
[21] = cetrorelix 2.5 mg/ml, Kollidon 20%
[22] = cetrorelix 5 mg/ml, Kollidon 15%
[23] = cetrorelix 5 mg/ml, Kollidon 20%
[24] = conc. of cetrorelix from lyo 2.5 mg/ml
[25] = conc. of cetrorelix from lyo 5 mg/ml
[26] = dose 1.5 mg/kg, inj. soln 3 mg/ml, listed as Acetate
[27] = dose 3.0 mg/kg, inj. soln 15 mg/ml
[28] = conc. of cetrorelix from lyo 15 mg/ml

Compound: CC(=O)N[C@H](Cc1ccc2ccccc2c1)C(=O)N[C@H](Cc1ccc(Cl)cc1)C(=O)N[C@H](Cc1cccnc1)C(=O)N[C@@H](CO)C(=O)N[C@@H](Cc1ccc(O)cc1)C(=O)N[C@H](CCCNC(N)=O)C(=O)N[C@@H](CC(C)C)C(=O)N[C@@H](CCCNC(=N)N)C(=O)N1CCC[C@H]1C(=O)N[C@H](C)C(N)=O [Base, cetrorelix] (Ac-[d2Nal][dPhe(4-Cl)][d3Pal]SY[dCit]LRP[dA]-NH2)
Cetrorelix content in the muscle (168 h), % of the dose [1, 6]: 27.2 % of the dose
Cetrorelix content in the plasma, % of the dose [2, 6]: 122.2 % of the dose

Compound: CC(=O)N[C@H](Cc1ccc2ccccc2c1)C(=O)N[C@H](Cc1ccc(Cl)cc1)C(=O)N[C@H](Cc1cccnc1)C(=O)N[C@@H](CO)C(=O)N[C@@H](Cc1ccc(O)cc1)C(=O)N[C@H](CCCNC(N)=O)C(=O)N[C@@H](CC(C)C)C(=O)N[C@@H](CCCNC(=N)N)C(=O)N1CCC[C@H]1C(=O)N[C@H](C)C(N)=O [cetrorelix acetate] (Ac-[d2Nal][dPhe(4-Cl)][d3Pal]SY[dCit]LRP[dA]-NH2)
Days without aggregation ([3]; 2.5 mg/ml cetrorelix acetate, gluconic acid in reconstitution medium 0%, pH 4.7): 1 days
Days without aggregation ([3]; 2.5 mg/ml cetrorelix acetate, gluconic acid in reconstitution medium 0.0071%, pH 4.5): 2 days
Days without aggregation ([3]; 2.5 mg/ml cetrorelix acetate, gluconic acid in reconstitution medium 0.071%, pH 3.7): 2 days
Days without aggregation ([3]; 2.5 mg/ml cetrorelix acetate, gluconic acid in reconstitution medium 0.71%, pH 3.1): 12 days
Aggregation (microscopy): yes, after ... days [3, 7]: 10 days
Aggregation (microscopy): days without aggregation [3, 8]: ≧112 days
Aggregation (microscopy): days without aggregation [3, 9]: ≧112 days
Aggregation (microscopy): yes, after ... day [3, 10]: yes, after 1 day
Aggregation (microscopy): days without aggregation [3, 11]: ≧12 days
Aggregation (microscopy): days without aggregation [3, 12]: ≧12 days
Aggregation (microscopy): yes, after ... days [3, 13]: yes, after 2 days
Aggregation (microscopy): yes, after ... days [3, 14]: 14 days
Aggregation (microscopy): days without aggregation [3, 15]: ≧112 days
Aggregation (microscopy): days without aggregation [3, 16]: ≧112 days
Days without aggregation ([3]; acetate salt, cetrorelix 2.5 mg/ml, glucuronic acid addition: no, pH 4.7): 0 days
Days without aggregation ([3]; acetate salt, cetrorelix 2.5 mg/ml, glucuronic acid addition: yes, pH 3.0): >21 days
Days without aggregation ([3]; acetate salt, cetrorelix 5 mg/ml, glucuronic acid addition: yes, pH 3.0): 0 days
Days without aggregation with Kollidon ® 12 PF [3, 17]: 0 days
Days without aggregation with Kollidon ® 17 PF [3, 17]: 0 days
Days without aggregation with Kollidon ® 12 PF [3, 18]: 1 days
Days without aggregation with Kollidon ® 17 PF [3, 18]: 2 days
Days without aggregation with Kollidon ® 12 PF [3, 19]: 1 days
Days without aggregation with Kollidon ® 17 PF [3, 19]: 2 days
Days without aggregation with Kollidon ® 12 PF [3, 20]: 77 days
Days without aggregation with Kollidon ® 17 PF [3, 20]: 63 days
Days without aggregation with Kollidon ® 12 PF [3, 21]: 84 days
Days without aggregation with Kollidon ® 17 PF [3, 21]: 98 days
Days without aggregation with Kollidon ® 12 PF [3, 22]: 0 days
Days without aggregation with Kollidon ® 17 PF [3, 22]: 1 days
Days without aggregation with Kollidon ® 12 PF [3, 23]: 0 days
Days without aggregation with Kollidon ® 17 PF [3, 23]: 1 days
Aggregation-free duration ([3]; cetrorelix acetate 2.5 mg/ml, 10% of α-cyclodextrin): 7 days
Aggregation-free duration ([3]; cetrorelix acetate 2.5 mg/ml, 20% of hydroxypropyl-β-cyclodextrin): 24 days
Aggregation-free duration ([3]; cetrorelix acetate 5 mg/ml, 10% of α-cyclodextrin): 0 days
Aggregation-free duration ([3]; cetrorelix acetate 5 mg/ml, 20% of hydroxypropyl-β-cyclodextrin): 7 days
Aggregation-free duration ([3]; cetrorelix acetate 7.5 mg/ml, 10% of α-cyclodextrin): 0 days
Aggregation-free duration ([3]; cetrorelix acetate 7.5 mg/ml, 20% of hydroxypropyl-β-cyclodextrin): 10 days
Aggregation-free duration ([3]; cetrorelix acetate 10 mg/ml, 10% of α-cyclodextrin): 0 days
Aggregation-free duration ([3]; cetrorelix acetate 10 mg/ml, 20% of hydroxypropyl-β-cyclodextrin): 2 days
Aggregation-free duration ([3]; cetrorelix acetate 15 mg/ml, 20% of hydroxypropyl-β-cyclodextrin): 0 days
Aggregation-free duration ([3]; cetrorelix acetate 15 mg/ml, 20% of γ-cyclodextrin): 0 days
Pol. mic days without aggr. [3, 24]: 0 days
Pol. mic days without aggr. [3, 25]: 0 days
RRS, [%] after 1 h [4, 24]: 12% and 13%
RRS, [%] after 6 h [4, 24]: 24.5% and 35.9%
RRS, [%] after 1 h [4, 25]: 10%
RRS, [%] after 6 h [4, 25]: 35%
Cetrorelix content in the muscle (168 h), % of the dose [1, 26]: 55.1 % of the dose
Cetrorelix content in the muscle (168 h), % of the dose [1, 27]: 56.5 % of the dose
Rat % i.m. after 168 h ([1]; residual content in the muscle, % of dose, conc. of cetrorelix 2.5 mg/ml): ~55%
Cetrorelix content in the plasma, % of the dose [2, 26]: 92.2 % of the dose
Cetrorelix content in the plasma, % of the dose [2, 27]: 28.7 % of the dose
Appearance [5, 7]: clear
Appearance [5, 8]: clear
Appearance [5, 9]: clear
Appearance [5, 10]: clear,; also recorded: viscose
Appearance [5, 11]: clear
Appearance [5, 12]: clear
Appearance [5, 13]: clear
Appearance [5, 14]: clear
Appearance [5, 15]: clear
Appearance [5, 16]: clear

Compound: Citrate
RRS, [%] after 1 h [4, 28]: 9%
RRS, [%] after 6 h [4, 28]: 20.3%

Compound: cetrorelix glucuronate
Days without aggregation ([3]; glucuronate salt, cetrorelix 2.5 mg/ml, glucuronic acid addition: no, pH 4.5): 3 days
Days without aggregation ([3]; glucuronate salt, cetrorelix 2.5 mg/ml, glucuronic acid addition: yes, pH 2.9): >30 days
Days without aggregation ([3]; glucuronate salt, cetrorelix 5 mg/ml, glucuronic acid addition: no, pH 4.6): 0 days
Days without aggregation ([3]; glucuronate salt, cetrorelix 5 mg/ml, glucuronic acid addition: yes, pH 2.7): >30 days
Cetrorelix content in the muscle (168 h), % of the dose ([1]; in vivo, 1.5 mg/kg): 16.5 % of the dose
Cetrorelix content in the muscle (168 h), % of the dose ([1]; in vivo, 3 mg/kg): 18.8 % of the dose
Cetrorelix content in the plasma, % of the dose ([2]; in vivo, 1.5 mg/kg): 78.6 % of the dose

The next lines start with the values.

RRS, [%] after 1 h ([4]; bulk): 20%
RRS, [%] after 6 h ([4]; bulk): 55.2%
Compound: Lactate

Cetrorelix content in the muscle (168 h), % of the dose ([1]; in vivo, 1.5 mg/kg): 32.9 % of the dose
Cetrorelix content in the plasma, % of the dose ([2]; in vivo, 1.5 mg/kg): 22.6 % of the dose
Compound: Phosphate

Days without aggregation ([3]; 2.5 mg/ml cetrorelix gluconate, hydroxypropyl-β-cyclodextrin 20%): 189 days
Days without aggregation ([3]; 2.5 mg/ml cetrorelix gluconate, hydroxypropyl-β-cyclodextrin […]): 91 days
Days without aggregation ([3]; 2.5 mg/ml cetrorelix gluconate, α-cyclodextrin 5%): 1 days
Days without aggregation ([3]; 2.5 mg/ml cetrorelix gluconate, α-cyclodextrin 10%): 140 days
Days without aggregation ([3]; 2.5 mg/ml cetrorelix gluconate, γ-cyclodextrin 20%): 182 days
Days without aggregation ([3]; 2.5 mg/ml cetrorelix gluconate, γ-cyclodextrin […]): 126 days
Days without aggregation ([3]; cetrorelix 2.5 mg/ml, gluconic acid addition: yes, pH 3.0): >30 days
Days without aggregation ([3]; cetrorelix 5 mg/ml, gluconic acid addition: no, pH 4.7): 1 days
Days without aggregation ([3]; cetrorelix 5 mg/ml, gluconic acid addition: no, pH 4.8): 1 days
Days without aggregation ([3]; cetrorelix 5 mg/ml, gluconic acid addition: yes, pH 3.6): 4 days
Days without aggregation ([3]; cetrorelix 5 mg/ml, gluconic acid addition: yes, pH 3.8): 4 days
Days without aggregation ([3]; cetrorelix 7.5 mg/ml, gluconic acid addition: no, pH 4.7): 0 days
Days without aggregation ([3]; cetrorelix 7.5 mg/ml, gluconic acid addition: no, pH 4.8): 0 days
Days without aggregation ([3]; cetrorelix 7.5 mg/ml, gluconic acid addition: yes, pH 3.4): 1 days
Days without aggregation ([3]; cetrorelix 7.5 mg/ml, gluconic acid addition: yes, pH 3.7): 1 days
RRS, [%] after 1 h [4, 24]: 18% and 11.3%
RRS, [%] after 6 h [4, 24]: 45.3% and 46%
Cetrorelix content in the muscle (168 h), % of the dose ([1]; in vivo, 1.5 mg/kg): 37.9 % of the dose
Cetrorelix content in the plasma, % of the dose ([2]; in vivo, 1.5 mg/kg): 46.9 % of the dose
Compound: cetrorelix gluconate
